The results in this text go back to ChEMBL document CHEMBL1141048, “5-Substituted 4-anilinoquinazolines as potent, selective and orally active inhibitors of erbB2 receptor tyrosine kinase” (Bioorg Med Chem Lett, 2005).

Structures are written as SMILES.

Data set [1] deals with KB. The data set is described as follows: Inhibitory concentration of compound against KB using a sandwich ELISA. Particulars: Homo sapiens. In general terms: ELISA stands for enzyme-linked immunosorbent assay.
Data set [2] can be described thus: Plasma concentration of compound after 4 hours of administration of 100 mg/kg through peroral route. As to conditions: mouse, po.
The nature of data set [3]: Bioavailability of compound in Mice after administration of 5 mg/kg through peroral route. Particulars: mouse, in vivo, po, read-out: Bioavailabiility. It is filed as ADME, organism-based.
The target of data set [4] is Epidermal growth factor receptor (Homo sapiens, UniProt P00533). Kind of data set: Inhibitory concentration against EGFR kinase phosphorylation using synthetic peptide as a substrate.
Data set [5] addresses T1, Receptor tyrosine-protein kinase erbB-2 (Homo sapiens, UniProt P04626). The data set is described as follows: Inhibitory concentration against erbB2 kinase phosphorylation using synthetic peptide as a substrate.
Data set [6] is described as follows: Steady state volume of Distribution of compound in Mice after administration of 2 mg/kg through intra venous route. Type of data set: ADME, organism-based. Details: dose 2 mg/kg. Particulars: mouse, in vivo, iv, read-out: Vdss.
The nature of data set [7]: Plasma concentration of compound after 2 hours of administration of 100 mg/kg through peroral route. As to conditions: mouse, po.
Data set [8] in a line: Steady state volume of Distribution of compound in Mice after administration of 5 mg/kg through peroral route. As to conditions: mouse, in vivo, po. Type of data set: ADME, organism-based. More on the design: dose 5 mg/kg, route oral.
Data set [9] addresses T1, Receptor tyrosine-protein kinase erbB-2. The data set is described as follows: Inhibitory concentration against erbB2 autophosphorylation in MCF-7 breast carcinoma cell line. It is filed as functional, cell-based, MCF7.
The nature of data set [10]: AUC in Mice after administration of 5 mg/kg through peroral route. Details: dose 5 mg/kg, route oral. Particulars: mouse, plasma, po. It is filed as ADME, organism-based.
The nature of data set [11]: AUC in Mice after administration of 5 mg/kg through oral route. As to conditions: mouse, plasma.
Data set [12] in a line: Plasma concentration of compound after 24 hours of administration of 100 mg/kg through peroral route. As to conditions: mouse, po.
Another data set concerns BT-474. The data set is described as follows: Inhibitory concentration of compound against BT474C using standard MTT colorimetric endpoint. As to conditions: Homo sapiens.
The nature of data set [13]: Clearance of compound in Mice after administration of 5 mg/kg through peroral route. Details: dose 5 mg/kg, route oral. Particulars: mouse, in vivo, po. Type of data set: ADME, organism-based.
The nature of data set [14]: Bioavailability of compound in Mice after administration of 2 mg/kg through intra venous route. It is filed as ADME, organism-based. As to conditions: mouse, in vivo, intravenous, read-out: Bioavailabiility.
The nature of data set [15]: Plasma concentration of compound after 6 hours of administration of 100 mg/kg through peroral route. As to conditions: mouse, po.
Data set [16] can be described thus: Plasma concentration of compound after 16 hours of administration of 100 mg/kg through peroral route. As to conditions: mouse, po.
A short description of data set [17]: Clearance of compound in Mice after administration of 2 mg/kg through intra venous route. Details: dose 2 mg/kg. Particulars: mouse, in vivo, iv. Type of data set: ADME, organism-based.
Data set [18] deals with KB. Kind of data set: Inhibitory concentration of compound against KB Basal. Particulars: Homo sapiens.

Chain of Epidermal growth factor receptor (P00533 whole entry): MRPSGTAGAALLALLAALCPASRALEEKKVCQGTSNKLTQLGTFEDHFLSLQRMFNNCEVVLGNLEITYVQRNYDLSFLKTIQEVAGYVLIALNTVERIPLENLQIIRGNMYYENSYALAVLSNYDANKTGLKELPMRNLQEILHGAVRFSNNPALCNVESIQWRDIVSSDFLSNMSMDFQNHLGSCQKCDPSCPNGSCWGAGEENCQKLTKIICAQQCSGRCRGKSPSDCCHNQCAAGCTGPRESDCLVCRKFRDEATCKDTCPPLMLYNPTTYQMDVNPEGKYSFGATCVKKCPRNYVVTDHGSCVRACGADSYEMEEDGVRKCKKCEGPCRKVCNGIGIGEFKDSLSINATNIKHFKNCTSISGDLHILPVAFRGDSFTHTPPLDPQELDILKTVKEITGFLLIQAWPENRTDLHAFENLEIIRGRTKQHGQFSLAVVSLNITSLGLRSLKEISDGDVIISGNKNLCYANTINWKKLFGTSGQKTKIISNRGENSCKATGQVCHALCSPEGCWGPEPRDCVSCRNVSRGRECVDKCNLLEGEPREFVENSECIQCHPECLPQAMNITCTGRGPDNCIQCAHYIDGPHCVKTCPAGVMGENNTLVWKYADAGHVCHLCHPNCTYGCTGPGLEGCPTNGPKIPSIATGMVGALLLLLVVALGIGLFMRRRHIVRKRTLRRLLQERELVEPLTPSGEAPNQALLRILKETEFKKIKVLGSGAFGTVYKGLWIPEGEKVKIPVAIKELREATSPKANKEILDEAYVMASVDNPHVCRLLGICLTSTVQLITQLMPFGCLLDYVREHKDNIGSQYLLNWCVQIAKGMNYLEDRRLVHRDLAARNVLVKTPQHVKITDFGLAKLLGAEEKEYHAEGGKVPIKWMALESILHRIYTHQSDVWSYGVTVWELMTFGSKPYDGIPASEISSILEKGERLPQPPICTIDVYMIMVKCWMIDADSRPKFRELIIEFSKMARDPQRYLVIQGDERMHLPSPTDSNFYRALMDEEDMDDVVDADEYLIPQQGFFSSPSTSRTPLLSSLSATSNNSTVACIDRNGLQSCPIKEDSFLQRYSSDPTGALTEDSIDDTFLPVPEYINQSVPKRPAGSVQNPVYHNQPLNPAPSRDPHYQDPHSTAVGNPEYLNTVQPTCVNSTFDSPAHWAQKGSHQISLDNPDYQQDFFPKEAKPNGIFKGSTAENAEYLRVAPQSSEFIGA
T1 sequence (P04626 whole entry): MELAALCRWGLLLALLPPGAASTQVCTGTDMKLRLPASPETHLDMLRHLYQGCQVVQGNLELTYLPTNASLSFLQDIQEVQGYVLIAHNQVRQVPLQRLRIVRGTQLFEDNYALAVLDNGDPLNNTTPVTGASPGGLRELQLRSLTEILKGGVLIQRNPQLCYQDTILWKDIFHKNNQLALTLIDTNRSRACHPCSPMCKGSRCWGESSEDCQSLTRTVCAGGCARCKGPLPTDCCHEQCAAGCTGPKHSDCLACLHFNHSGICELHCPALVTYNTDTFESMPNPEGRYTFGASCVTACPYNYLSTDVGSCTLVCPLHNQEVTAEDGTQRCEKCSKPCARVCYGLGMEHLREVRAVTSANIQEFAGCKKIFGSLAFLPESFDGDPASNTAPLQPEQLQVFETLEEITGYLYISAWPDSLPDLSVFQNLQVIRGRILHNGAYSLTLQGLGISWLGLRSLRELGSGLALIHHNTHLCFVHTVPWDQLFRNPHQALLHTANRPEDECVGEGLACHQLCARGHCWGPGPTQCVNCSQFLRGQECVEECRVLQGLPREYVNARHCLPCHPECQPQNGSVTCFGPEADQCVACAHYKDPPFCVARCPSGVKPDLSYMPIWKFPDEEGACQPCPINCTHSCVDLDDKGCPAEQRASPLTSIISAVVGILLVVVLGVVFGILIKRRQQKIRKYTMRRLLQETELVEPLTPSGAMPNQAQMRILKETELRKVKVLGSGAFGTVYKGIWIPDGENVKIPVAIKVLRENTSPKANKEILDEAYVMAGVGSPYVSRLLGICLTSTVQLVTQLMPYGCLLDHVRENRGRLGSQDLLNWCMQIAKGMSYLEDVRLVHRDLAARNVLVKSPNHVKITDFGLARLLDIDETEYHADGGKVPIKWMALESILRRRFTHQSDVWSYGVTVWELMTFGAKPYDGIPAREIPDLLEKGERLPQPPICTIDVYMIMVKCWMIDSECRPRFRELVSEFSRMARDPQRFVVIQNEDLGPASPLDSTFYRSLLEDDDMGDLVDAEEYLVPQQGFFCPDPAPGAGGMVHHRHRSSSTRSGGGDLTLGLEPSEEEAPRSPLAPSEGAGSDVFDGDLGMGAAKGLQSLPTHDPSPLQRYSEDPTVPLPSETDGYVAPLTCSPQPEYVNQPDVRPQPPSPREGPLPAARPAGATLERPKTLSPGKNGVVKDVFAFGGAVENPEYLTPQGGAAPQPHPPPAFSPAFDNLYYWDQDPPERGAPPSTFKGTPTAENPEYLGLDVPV

Regarding `CN1CCC(Oc2cccc3ncnc(Nc4ccc(OCc5ccccn5)c(Cl)c4)c23)CC1`, the IC50 – broadly, the concentration that gives 50% inhibition – in the data set on KB [1] is 2.6 µM; in data set [4], 0.14 µM; in [5], less than 0.002 µM; in [9], 0.061 µM; with BT-474, 0.041 µM; in the data set on KB [18], 11.9 µM. Besides, the concentration at 4 h in data set [2] stood at 7.2 µM. For the same molecule, the bioavailability in data set [3] and in data set [14] was 50% in each case. For the same molecule, the Vd in [6] is 2.6 L/kg. In data set [7], this molecule registered a concentration at 2 h of 9.2 µM. This molecule also gave a Vdss in [8] of 2.6 L/kg. The AUC in [10] and in data set [11] was 5.5 µM·h in each case. Besides, the concentration at 24 h in data set [12] was 1.1 µM. The apparent clearance (CL/F) – broadly, clearance divided by bioavailability, as obtained after extravascular dosing – in [13] is 15 mL/min/kg. The same molecule came in with a concentration at 6 h in [15] of 6.9 µM. Besides, the concentration at 16 h in data set [16] was 2.2 µM. Further, the clearance (as a rule, the rate of elimination divided by the concentration) in [17] was 15 mL/min/kg.
In the case of `Clc1cc(Nc2ncnc3cccc(OC4CCOCC4)c23)ccc1OCc1ccccn1`, the results for the IC50 in [4] and in data set [5] were 2.4 µM and 0.024 µM, respectively.
The corresponding values for `CN1CCC(Oc2cccc3ncnc(Nc4ccc(OCc5ccccn5)cc4)c23)CC1` are 2.1 µM and 0.07 µM.
As for `COc1cccc2ncnc(Nc3ccc(OCc4ccccn4)c(Cl)c3)c12`, the IC50 in [4] is 0.44 µM; in data set [5], 0.024 µM.
Regarding `CN1CCC(Oc2cccc3ncnc(Nc4ccc(OCc5cscn5)c(Cl)c4)c23)CC1`, the IC50 in [4] is 0.698 µM; in data set [5], less than 0.002 µM.
With `COc1ccc(Nc2ncnc3cccc(OC4CCN(C)CC4)c23)cc1Cl`, the IC50 in data set [4] came out at 1.8 µM; in [5], 1.1 µM.
Take `CN1CCC(Oc2cccc3ncnc(Nc4ccc(OCc5cccc(F)c5)c(Cl)c4)c23)CC1`: the 50% inhibitory concentration (IC50) is 0.46 µM in the data set with KB [1]; 0.005 µM in data set [4]; less than 0.002 µM in [5]; 0.056 µM in [9]; 0.0027 µM in the data set with BT-474; 1.7 µM in the data set with KB [18].
In the case of `COc1cc2ncnc(Nc3ccc(OCc4ccccn4)c(C)c3)c2cc1OC`, the half-maximal inhibitory concentration (IC50) in [4] came to 0.059 µM; in [5], 0.056 µM.
`CN1CCC(Oc2cccc3ncnc(Nc4ccc(OCc5cnccn5)c(Cl)c4)c23)CC1`: the IC50 in data set [4] was 0.69 µM; in [5], less than 0.002 µM.
